In ChEMBL document CHEMBL1152904, “Synthesis and characterization of a BODIPY-labeled derivative of Soraphen A that binds to acetyl-CoA carboxylase” (Bioorg Med Chem Lett, 2009) one finds Kd data, which are given here for one compound.

In the test the target is Acetyl-CoA carboxylase 2 (Homo sapiens, UniProt O00763). Nature of the test: Binding affinity to human His-tagged acetyl-CoA-carboxylase biotin carboxylase domain. The following applies: read-out: Kd(app).

Structures are written as SMILES.

Sequence of Acetyl-CoA carboxylase 2 (O00763 whole entry, the tested form may be a part): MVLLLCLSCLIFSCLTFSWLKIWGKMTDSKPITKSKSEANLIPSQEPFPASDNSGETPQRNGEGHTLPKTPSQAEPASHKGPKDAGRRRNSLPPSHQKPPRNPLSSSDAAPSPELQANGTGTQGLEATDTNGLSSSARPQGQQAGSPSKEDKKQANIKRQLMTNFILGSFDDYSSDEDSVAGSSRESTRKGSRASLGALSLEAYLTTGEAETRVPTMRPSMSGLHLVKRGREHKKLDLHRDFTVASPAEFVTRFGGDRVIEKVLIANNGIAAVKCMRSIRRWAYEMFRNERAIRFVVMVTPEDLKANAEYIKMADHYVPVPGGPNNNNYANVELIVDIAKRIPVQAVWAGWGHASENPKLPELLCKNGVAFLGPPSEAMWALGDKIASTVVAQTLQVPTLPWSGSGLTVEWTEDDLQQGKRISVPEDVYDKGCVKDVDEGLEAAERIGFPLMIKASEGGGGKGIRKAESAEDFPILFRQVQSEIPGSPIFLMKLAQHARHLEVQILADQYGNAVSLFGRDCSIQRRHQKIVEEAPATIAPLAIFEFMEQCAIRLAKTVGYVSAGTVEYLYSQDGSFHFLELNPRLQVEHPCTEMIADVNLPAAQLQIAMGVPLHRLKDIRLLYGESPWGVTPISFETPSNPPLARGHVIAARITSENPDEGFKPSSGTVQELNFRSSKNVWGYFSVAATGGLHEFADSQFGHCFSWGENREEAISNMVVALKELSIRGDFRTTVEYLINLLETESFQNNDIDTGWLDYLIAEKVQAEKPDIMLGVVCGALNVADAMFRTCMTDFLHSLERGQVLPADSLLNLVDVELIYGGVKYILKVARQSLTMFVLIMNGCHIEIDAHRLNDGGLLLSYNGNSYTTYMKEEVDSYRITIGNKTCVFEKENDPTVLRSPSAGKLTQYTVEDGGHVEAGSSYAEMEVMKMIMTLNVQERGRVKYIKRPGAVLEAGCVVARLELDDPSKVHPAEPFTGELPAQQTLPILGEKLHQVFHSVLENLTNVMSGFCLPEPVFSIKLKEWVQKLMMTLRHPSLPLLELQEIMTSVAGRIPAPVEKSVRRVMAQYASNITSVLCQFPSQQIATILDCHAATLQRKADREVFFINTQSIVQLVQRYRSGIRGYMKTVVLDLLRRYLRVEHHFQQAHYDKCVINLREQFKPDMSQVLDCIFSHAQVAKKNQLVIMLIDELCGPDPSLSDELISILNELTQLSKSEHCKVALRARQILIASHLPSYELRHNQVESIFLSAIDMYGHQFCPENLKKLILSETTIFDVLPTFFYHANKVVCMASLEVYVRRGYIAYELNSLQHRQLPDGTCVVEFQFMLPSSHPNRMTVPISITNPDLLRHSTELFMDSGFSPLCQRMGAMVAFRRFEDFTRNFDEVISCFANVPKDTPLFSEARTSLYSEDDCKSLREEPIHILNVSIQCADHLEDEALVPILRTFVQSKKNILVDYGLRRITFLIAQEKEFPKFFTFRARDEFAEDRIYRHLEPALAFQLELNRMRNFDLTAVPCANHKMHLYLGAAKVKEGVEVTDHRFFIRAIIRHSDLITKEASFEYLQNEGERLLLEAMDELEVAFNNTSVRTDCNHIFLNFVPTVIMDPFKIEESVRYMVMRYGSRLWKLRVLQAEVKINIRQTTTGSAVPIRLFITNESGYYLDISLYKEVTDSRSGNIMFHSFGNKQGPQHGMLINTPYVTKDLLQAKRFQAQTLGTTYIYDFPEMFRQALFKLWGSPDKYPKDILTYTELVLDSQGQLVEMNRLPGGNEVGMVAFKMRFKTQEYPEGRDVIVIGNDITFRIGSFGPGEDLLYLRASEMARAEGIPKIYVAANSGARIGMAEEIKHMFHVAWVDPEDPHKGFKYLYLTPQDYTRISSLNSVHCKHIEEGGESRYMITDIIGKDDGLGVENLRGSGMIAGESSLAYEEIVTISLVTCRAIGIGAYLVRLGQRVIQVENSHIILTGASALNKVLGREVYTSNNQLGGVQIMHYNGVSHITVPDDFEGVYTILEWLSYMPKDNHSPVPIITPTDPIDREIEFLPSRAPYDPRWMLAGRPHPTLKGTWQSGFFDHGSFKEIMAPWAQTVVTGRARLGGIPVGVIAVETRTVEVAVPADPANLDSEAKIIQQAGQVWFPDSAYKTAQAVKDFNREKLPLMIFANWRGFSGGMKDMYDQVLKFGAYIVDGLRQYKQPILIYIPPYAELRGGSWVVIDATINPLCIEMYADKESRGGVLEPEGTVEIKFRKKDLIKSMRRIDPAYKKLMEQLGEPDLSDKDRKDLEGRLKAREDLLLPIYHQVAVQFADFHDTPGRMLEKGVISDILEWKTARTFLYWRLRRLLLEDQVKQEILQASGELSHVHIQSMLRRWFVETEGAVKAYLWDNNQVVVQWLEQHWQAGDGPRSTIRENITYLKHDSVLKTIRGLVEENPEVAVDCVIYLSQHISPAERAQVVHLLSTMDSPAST

Regarding `CO[C@H]1CCCC[C@@H](c2ccccc2)OC(=O)[C@@H](C)[C@@]2(O)O[C@H]([C@@H](C)[C@H](O)[C@H]2OC)[C@@H](C)/C=C/[C@H]1OC(=O)CCC1=[N+]2C(=Cc3c(C)cc(C)n3[B-]2(F)F)C=C1`, the Kd came to 3 nM.
